The text below walks through data of paper PMC2829555, “The zebrafish genome encodes the largest vertebrate repertoire of functional aquaporins with dual paralogy and substrate specificities similar to mammals” (BMC Evolutionary Biology, 2010).

The structures appear in SMILES notation.

What all share (assay): radiolabelled solute uptake in cRNA-injected oocytes
Holding throughout (assay type): cell-based
Conditions in all cases: MBS buffer, 1 mM solute, 10 min, room temperature; labelled compound

One assay deals with T1, DrAqp3a (Danio rerio, UniProt Q803U6).
T1 construct: gene aqp3a; full-length cDNA in pT7Ts, untagged, cRNA-injected Xenopus laevis oocytes
T1 sequence (Q803U6 1-296): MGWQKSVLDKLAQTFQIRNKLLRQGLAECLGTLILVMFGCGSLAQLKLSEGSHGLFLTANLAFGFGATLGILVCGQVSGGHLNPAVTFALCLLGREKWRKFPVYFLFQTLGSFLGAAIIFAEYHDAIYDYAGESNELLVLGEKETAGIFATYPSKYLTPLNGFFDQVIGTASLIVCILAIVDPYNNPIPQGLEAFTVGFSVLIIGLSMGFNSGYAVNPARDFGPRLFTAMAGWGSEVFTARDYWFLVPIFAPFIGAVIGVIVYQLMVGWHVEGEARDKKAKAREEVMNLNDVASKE

Another assay concerns the target T2, DrAqp8ab (Danio rerio, UniProt A0A8N1TQ94).
T2 construct: gene aqp8a.2; full-length cDNA in pT7Ts, untagged, cRNA-injected Xenopus laevis oocytes
T2 sequence (A0A8N1TQ94 1-257): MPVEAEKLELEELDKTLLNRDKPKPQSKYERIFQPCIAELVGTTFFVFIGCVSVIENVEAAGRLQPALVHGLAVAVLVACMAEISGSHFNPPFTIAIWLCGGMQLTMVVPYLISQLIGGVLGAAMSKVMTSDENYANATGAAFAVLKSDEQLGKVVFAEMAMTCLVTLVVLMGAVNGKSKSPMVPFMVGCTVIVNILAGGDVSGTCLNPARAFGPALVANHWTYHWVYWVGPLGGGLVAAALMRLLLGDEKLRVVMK

A further assay addresses T3, DrAqp8aa (Danio rerio, UniProt Q66I64).
T3 construct: gene aqp8a.1; full-length cDNA in pT7Ts, untagged, cRNA-injected Xenopus laevis oocytes
T3 sequence (Q66I64 1-260): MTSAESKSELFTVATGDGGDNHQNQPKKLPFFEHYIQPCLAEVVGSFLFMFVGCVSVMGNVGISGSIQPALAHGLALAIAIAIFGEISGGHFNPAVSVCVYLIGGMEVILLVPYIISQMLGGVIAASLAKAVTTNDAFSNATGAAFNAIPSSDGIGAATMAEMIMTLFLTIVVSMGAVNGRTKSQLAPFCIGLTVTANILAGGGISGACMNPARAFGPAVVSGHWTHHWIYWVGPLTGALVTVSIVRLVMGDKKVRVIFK

A further assay concerns the target T4, DrAqp10b (Danio rerio, UniProt Q1L8T0).
T4 construct: gene aqp10b; full-length cDNA in pT7Ts, untagged, cRNA-injected Xenopus laevis oocytes
T4 sequence (Q1L8T0 1-276): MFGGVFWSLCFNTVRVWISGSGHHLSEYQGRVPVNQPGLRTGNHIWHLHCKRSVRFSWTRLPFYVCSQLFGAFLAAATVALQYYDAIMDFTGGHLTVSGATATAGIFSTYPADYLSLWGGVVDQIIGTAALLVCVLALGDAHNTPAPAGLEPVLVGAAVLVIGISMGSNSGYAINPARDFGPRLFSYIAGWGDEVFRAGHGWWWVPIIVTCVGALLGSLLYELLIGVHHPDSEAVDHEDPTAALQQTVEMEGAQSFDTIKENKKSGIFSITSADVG

The target in a further assay is T5, DrAqp9b (Danio rerio, UniProt D5FFZ1).
T5 construct: gene aqp9b; full-length cDNA in pT7Ts, untagged, cRNA-injected Xenopus laevis oocytes; FJ655387 is printed for both 9a and 9b
T5 sequence (D5FFZ1 1-291): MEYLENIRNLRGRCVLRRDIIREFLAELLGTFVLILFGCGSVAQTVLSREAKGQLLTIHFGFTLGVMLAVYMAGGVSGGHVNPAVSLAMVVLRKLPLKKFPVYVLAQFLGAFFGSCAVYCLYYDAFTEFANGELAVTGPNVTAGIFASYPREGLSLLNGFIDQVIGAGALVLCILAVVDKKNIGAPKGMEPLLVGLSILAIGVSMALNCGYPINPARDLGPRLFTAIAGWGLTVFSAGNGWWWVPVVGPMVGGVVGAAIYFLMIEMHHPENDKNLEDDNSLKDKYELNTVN

The target of the next assay is T6, DrAqp7 (Danio rerio, UniProt D3TZW4).
T6 construct: gene aqp7; full-length cDNA in pT7Ts, untagged, cRNA-injected Xenopus laevis oocytes
T6 sequence (D3TZW4 1-303): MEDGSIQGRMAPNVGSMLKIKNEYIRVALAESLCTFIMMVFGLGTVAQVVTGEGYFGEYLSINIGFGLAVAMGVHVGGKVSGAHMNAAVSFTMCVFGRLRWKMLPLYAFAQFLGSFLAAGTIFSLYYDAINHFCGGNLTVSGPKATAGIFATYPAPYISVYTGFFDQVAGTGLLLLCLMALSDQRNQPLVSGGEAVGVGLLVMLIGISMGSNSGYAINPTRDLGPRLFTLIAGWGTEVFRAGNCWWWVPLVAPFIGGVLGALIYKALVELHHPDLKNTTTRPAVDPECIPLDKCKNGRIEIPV

A further assay concerns the target T7, DrAqp3b (Danio rerio, UniProt D3TI80).
T7 construct: gene aqp3b; full-length cDNA in pT7Ts, untagged, cRNA-injected Xenopus laevis oocytes
T7 sequence (D3TI80 1-299): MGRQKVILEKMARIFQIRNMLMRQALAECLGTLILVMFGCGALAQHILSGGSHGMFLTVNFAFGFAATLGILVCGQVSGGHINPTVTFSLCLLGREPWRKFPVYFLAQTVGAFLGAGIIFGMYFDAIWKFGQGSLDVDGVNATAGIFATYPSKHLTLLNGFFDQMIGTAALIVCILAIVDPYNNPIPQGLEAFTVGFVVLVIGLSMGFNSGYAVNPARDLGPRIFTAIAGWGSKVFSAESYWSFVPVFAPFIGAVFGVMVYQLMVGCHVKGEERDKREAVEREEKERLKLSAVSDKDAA

The target of another assay is T8, DrAqp10a (Danio rerio, UniProt A0A8M1N0C8).
T8 construct: gene aqp10a; full-length cDNA in pT7Ts, untagged, cRNA-injected Xenopus laevis oocytes
T8 sequence (A0A8M1N0C8 1-293): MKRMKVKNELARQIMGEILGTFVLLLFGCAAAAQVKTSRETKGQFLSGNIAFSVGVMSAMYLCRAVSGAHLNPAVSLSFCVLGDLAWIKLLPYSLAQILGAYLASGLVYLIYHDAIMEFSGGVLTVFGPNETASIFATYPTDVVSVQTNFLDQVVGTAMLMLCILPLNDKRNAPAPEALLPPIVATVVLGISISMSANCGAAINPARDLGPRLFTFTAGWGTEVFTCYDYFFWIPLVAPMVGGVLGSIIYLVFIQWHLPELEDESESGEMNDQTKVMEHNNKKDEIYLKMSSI

The target of the next assay is T9, DrAqp9a (Danio rerio, UniProt Q498W2).
T9 construct: gene aqp9a; full-length cDNA in pT7Ts, untagged, cRNA-injected Xenopus laevis oocytes
T9 sequence (Q498W2 1-294): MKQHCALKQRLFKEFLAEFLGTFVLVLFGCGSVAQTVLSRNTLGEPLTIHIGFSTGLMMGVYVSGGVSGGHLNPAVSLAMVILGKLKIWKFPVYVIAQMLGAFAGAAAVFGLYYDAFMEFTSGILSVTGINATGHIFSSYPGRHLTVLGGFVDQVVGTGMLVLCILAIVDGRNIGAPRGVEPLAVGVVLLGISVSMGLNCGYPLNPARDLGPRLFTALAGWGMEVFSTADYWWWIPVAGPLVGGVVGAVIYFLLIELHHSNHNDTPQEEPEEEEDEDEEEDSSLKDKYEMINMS

Regarding `NC(N)=O` [urea], the “radiolabelled solute uptake in cRNA-injected oocytes” value (“radiolabelled solute uptake” below) was “draqp3a, -3b, -7, -9a, -9b, -10a and -10b were also permeable to glycerol and urea” on DrAqp3a; “Oocytes expressing draqp8aa or -8ab were permeable to water and urea, but not glycerol” at DrAqp8ab; “Oocytes expressing draqp8aa or -8ab were permeable to water and urea, but not glycerol” on DrAqp8aa; “in the case of draqp10b urea permeability was low” at DrAqp10b; “draqp3a, -3b, -7, -9a, -9b, -10a and -10b were also permeable to glycerol and urea” at DrAqp9b; “draqp3a, -3b, -7, -9a, -9b, -10a and -10b were also permeable to glycerol and urea” at DrAqp7. Also, the “radiolabelled solute uptake” value was “draqp3a, -3b, -7, -9a, -9b, -10a and -10b were also permeable to glycerol and urea” at DrAqp3b; “draqp3a, -3b, -7, -9a, -9b, -10a and -10b were also permeable to glycerol and urea” on DrAqp10a; “draqp3a, -3b, -7, -9a, -9b, -10a and -10b were also permeable to glycerol and urea” at DrAqp9a.
As for `OCC(O)CO` [glycerol], the “radiolabelled solute uptake” value on DrAqp3a is “draqp3a, -3b, -7, -9a, -9b, -10a and -10b were also permeable to glycerol and urea”; on DrAqp10b, “draqp3a, -3b, -7, -9a, -9b, -10a and -10b were also permeable to glycerol and urea”; at DrAqp9b it was “draqp3a, -3b, -7, -9a, -9b, -10a and -10b were also permeable to glycerol and urea”; at DrAqp7, “draqp3a, -3b, -7, -9a, -9b, -10a and -10b were also permeable to glycerol and urea”; on DrAqp3b, “draqp3a, -3b, -7, -9a, -9b, -10a and -10b were also permeable to glycerol and urea”; at DrAqp10a, “draqp3a, -3b, -7, -9a, -9b, -10a and -10b were also permeable to glycerol and urea”. Moreover, the “radiolabelled solute uptake” value on DrAqp9a is “draqp3a, -3b, -7, -9a, -9b, -10a and -10b were also permeable to glycerol and urea”.
